This is an account of results in patent US9593113B2, “Imide and acylurea derivatives as modulators of the glucocorticoid receptor” (BRISTOL-MYERS SQUIBB COMPANY, priority 2013, dated 2017).

The structures appear in SMILES notation. Read-outs that look alike come from different tables or passages of the source.

The target of test [1] is human full-length glucocorticoid receptor (Homo sapiens (Human), UniProt P04150). Briefly: Glucocorticoid Receptor Binding Assay (II), fluorescence polarization competitor kit. As to conditions: read-out: GR (Ki, nM) (measured in GR binding Assay II). As to the method:
In order to measure the binding of compounds on the glucocorticoid receptor a commercially available kit was used (Glucocorticoid receptor competitor assay kit, PanVera Co., Madison, Wis., P2816). Briefly, a cell lysate containing recombinantly expressed human full-length glucocorticoid receptor was mixed with a fluorescently labeled glucocorticoid (1 nM Fluormone GS1) in the presence or absence of test compound. After one hour at room temperature, the fluorescence polarization (FP) of the samples were measured.

The subject of test [2] is AP-1 induced transcriptional activity. Briefly: Cellular transrepressional assay (AP-1 luciferase reporter, PMA-activated A549 cell). The class given is cell-based. As to conditions: for EC50: read-out: AP-1 (EC50, nM) (measured in cellular transrepression assay). As to the method:
To measure the ability of test molecules to inhibit AP-1 induced transcriptional activity we utilized an A549 cell which was stably transfected with a plasmid containing 7×AP-1 DNA binding sites (pAP-1-Luc plasmid, Stratagene Co., La Jolla, Calif.) followed by the gene for luciferase. Cells were activated with 10 ng/ml of phorbol myristic acid (PMA) plus or minus test molecules for 7 hours. After 7 hours a luciferase reagent was added to measure luciferase enzymatic activity in the cell. After a 10 minute incubation of luciferase reagent with cells, luminescence was measured in a TOPCOUNT® luminescence counter. Repression of AP-1 activity was calculated as the percentage decrease in the signal induced by PMA alone. Test molecules were analyzed in the concentration range from 0.1 nM to 40 μM. EC50s were determined by using standard curve fitting methods such as Excel fit (Microsoft Co.). An EC50 is the test molecule concentration at which there is a 50% repression of the maximal inhibition of transcription, i.e., a 50% reduction of AP-1 activity.
For orientation: In a reporter assay the amount or activity of a reporter protein is the signal.

Setting [3] is: A549 cell, 10 ng/ml PMA, 7 hours.

human full-length glucocorticoid receptor, sequence (P04150 whole entry): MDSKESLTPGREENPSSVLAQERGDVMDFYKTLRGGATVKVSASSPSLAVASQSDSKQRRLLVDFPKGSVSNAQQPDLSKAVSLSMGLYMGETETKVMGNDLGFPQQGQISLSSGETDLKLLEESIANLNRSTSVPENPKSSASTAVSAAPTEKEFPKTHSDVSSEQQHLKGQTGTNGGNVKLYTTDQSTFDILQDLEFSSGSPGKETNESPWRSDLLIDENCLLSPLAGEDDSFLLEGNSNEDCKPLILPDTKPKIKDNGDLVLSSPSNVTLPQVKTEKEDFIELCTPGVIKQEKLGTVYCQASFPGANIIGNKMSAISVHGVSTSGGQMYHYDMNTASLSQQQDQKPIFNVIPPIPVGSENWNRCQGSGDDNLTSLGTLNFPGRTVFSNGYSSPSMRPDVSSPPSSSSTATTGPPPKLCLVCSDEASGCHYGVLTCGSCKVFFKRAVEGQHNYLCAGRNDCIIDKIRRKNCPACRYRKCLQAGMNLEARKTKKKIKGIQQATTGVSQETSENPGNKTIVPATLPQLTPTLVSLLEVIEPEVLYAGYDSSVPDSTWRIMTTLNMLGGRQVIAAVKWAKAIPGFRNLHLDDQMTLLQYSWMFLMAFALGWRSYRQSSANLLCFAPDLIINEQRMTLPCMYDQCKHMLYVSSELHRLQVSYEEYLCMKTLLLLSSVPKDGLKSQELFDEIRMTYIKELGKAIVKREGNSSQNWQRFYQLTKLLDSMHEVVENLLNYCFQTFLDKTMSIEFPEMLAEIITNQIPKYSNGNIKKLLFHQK

Broadly, the Ki is a dissociation constant, usually derived from enzyme kinetics or from competition with a known ligand. The EC50 is the midpoint of the concentration-response curve. Consider `CCS(=O)(=O)c1ccc(-c2ccc3c(n2)Oc2c(F)cccc2[C@@H]3C(C)(C)C(=O)NC(N)=O)cc1` [Example 31], for which the Ki in test [1] was 0.43 nM. Besides, in test [2] (setting [3]), the “AP-1 Max % inhibition (measured in cellular transrepression assay)” value (“AP-1 Max % inhibition” below) is 56.84% and the EC50 was 5.55 nM.

For the compound `CC(C)S(=O)(=O)c1ccc(-c2ccc3c(n2)Oc2c(F)cccc2[C@@H]3C(C)(C)C(=O)NC(N)=O)cc1` [Example 32], in test [1], the inhibitory constant (Ki) was 3.55 nM. In test [2] (setting [3]), the “AP-1 Max % inhibition” value is on record as 59.56% and the EC50 is 4.89 nM.

`CC(C)(C(=O)NC(N)=O)[C@@H]1c2ccc(-c3ccc(S(C)(=O)=O)cc3)nc2Oc2c(F)cccc21` [Example 33]: the Ki in test [1] was found to be 0.59 nM. In test [2] (setting [3]), the “AP-1 Max % inhibition” value is recorded as 64.54% and the EC50 was determined as 5.82 nM.

Turning to `CC(C)Oc1ccc(-c2ccc3c(n2)Oc2c(F)cccc2[C@@H]3C(C)(C)C(=O)NC(N)=O)cc1` [Example 34], in test [1], the Ki was 0.25 nM. Also, in test [2] (setting [3]), the “AP-1 Max % inhibition” value stood at 68.62% and the EC50 is 1.24 nM.

For `CC(C)Oc1ccc(-c2ccc3c(n2)Oc2c(F)cccc2[C@@H]3C(C)(C)C(=O)NC(N)=O)cc1F` [Example 35], the Ki in test [1] came out at 0.4 nM. For the same compound, in test [2] (setting [3]), the “AP-1 Max % inhibition” value came to 54.04% and the concentration for a half-maximal effect (EC50) is 7.5 nM.

`CC(C)Oc1ccc(-c2ccc3c(n2)Oc2ccccc2[C@@H]3C(C)(C)C(=O)NC(N)=O)cc1` [Example 36]: the Ki in test [1] came to 0.8 nM. Moreover, in test [2] (setting [3]), the “AP-1 Max % inhibition” value came out at 59.83% and the EC50 amounted to 16.2 nM.

On to `CCC(C)c1ccc(-c2ccc3c(n2)Oc2ccccc2[C@@H]3C(C)(C)C(=O)NC(N)=O)cc1` (stereo partly drawn) [Example 38], for which, in test [1], the Ki came out at 1.74 nM. In test [2] (setting [3]), the “AP-1 Max % inhibition” value was determined as 56.33% and the EC50 was 14.1 nM.

For `CCS(=O)(=O)c1ccc(-c2ccc3c(n2)Oc2ccccc2[C@@H]3C(C)(C)C(=O)NC(N)=O)cc1` [Example 39], in test [1], the inhibitory constant (Ki) is 0.93 nM. In test [2] (setting [3]), the “AP-1 Max % inhibition” value is 58.23% and the EC50 was found to be 13 nM.

For the compound `CC(C)(C(=O)NC(N)=O)[C@H]1c2ccccc2Oc2nc(-c3ccc(C(=O)N4CCCC4)cc3)ccc21` [Example 40], the Ki in test [1] came to 1.93 nM. Further, in test [2] (setting [3]), the “AP-1 Max % inhibition” value came to 68.22% and the EC50 stood at 8.69 nM.

Take `CCCCc1ccc(-c2ccc3c(n2)Oc2c(F)cccc2[C@@H]3C(C)(C)C(=O)NC(N)=O)cc1` [Example 43]: in test [1], the Ki is 0.91 nM. In test [2] (setting [3]), the “AP-1 Max % inhibition” value stood at 67.14% and the EC50 stood at 5.39 nM.

As to `CC(C)(C(=O)NC(N)=O)[C@@H]1c2ccc(-c3ccc(-n4cnnn4)cc3)nc2Oc2c(F)cccc21` [Example 45], the inhibitory constant (Ki) in test [1] worked out at 0.82 nM. Further, in test [2] (setting [3]), the “AP-1 Max % inhibition” value was 55.41% and the EC50 was 7.77 nM.

With `CC(C)(C(=O)NC(N)=O)[C@@H]1c2ccc(-c3ccc(C(=O)N4CCCC4)nc3)nc2Oc2c(F)cccc21` [Example 46], in test [1], the Ki turned out to be 1.97 nM. In test [2] (setting [3]), the “AP-1 Max % inhibition” value is given as 65.90% and the EC50 came out at 16.5 nM.

With `CC(C)(C(=O)NC(N)=O)[C@H]1c2ccccc2Oc2nc(-c3ccc(C(=O)N4CCC(F)(F)C4)c(F)c3)ccc21` [Example 49], the Ki in test [1] came out at 1.09 nM. Further, in test [2] (setting [3]), the “AP-1 Max % inhibition” value was 67.00% and the EC50 stood at 13.3 nM.

In the case of `CC(C)(C(=O)NC(N)=O)[C@H]1c2ccccc2Oc2nc(-c3ccc(C(=O)N4CCC(F)(F)C4)cc3)ccc21` [Example 50], the Ki in test [1] is 1.76 nM. In addition, in test [2] (setting [3]), the “AP-1 Max % inhibition” value was 69.26% and the EC50 came to 15.3 nM.

On to `CC(C)(C(=O)NC(N)=O)[C@H]1c2ccccc2Oc2nc(-c3ccc(C(=O)N4CCCC4)c(F)c3)ccc21` [Example 51], for which the Ki in test [1] amounted to 1.34 nM. For the same compound, in test [2] (setting [3]), the “AP-1 Max % inhibition” value came to 65.20% and the EC50 amounted to 13.2 nM.

On to `CC(C)(C(=O)NC(N)=O)[C@H]1c2ccccc2Oc2nc(-c3ccc(C(=O)N4CCCC4)c(Cl)c3)ccc21` [Example 52], for which the Ki in test [1] stood at 123 nM. Also, in test [2] (setting [3]), the “AP-1 Max % inhibition” value is 57.02% and the 50% effective concentration (EC50) amounted to 815 nM.

As to `CC(C)(C(=O)NC(N)=O)[C@H]1c2ccccc2Oc2nc(-c3ccc(C(=O)N4CCC(F)(F)C4)c(Cl)c3)ccc21` [Example 53], the inhibitory constant (Ki) in test [1] was 369 nM. In test [2] (setting [3]), the “AP-1 Max % inhibition” value is listed as 28.67% and the EC50 was found to be 2500 nM.

Turning to `CC(C)(C(=O)NC(N)=O)[C@H]1c2ccccc2Oc2nc(-c3ccc(C(=O)N4CCCC4)nc3)ccc21` [Example 54], the Ki in test [1] came out at 7.65 nM. Further, in test [2] (setting [3]), the “AP-1 Max % inhibition” value came to 55.36% and the EC50 is 67.2 nM.

Regarding `CC(C)Oc1ccc(-c2ccc3c(n2)Oc2ccccc2[C@@H]3C(C)(C)C(=O)NC(N)=O)cn1` [Example 57], in test [1], the Ki stood at 4.23 nM. Besides, in test [2] (setting [3]), the “AP-1 Max % inhibition” value came out at 73.98% and the EC50 turned out to be 128 nM.

In the case of `CN(C)c1ccc(-c2ccc3c(n2)Oc2ccccc2[C@@H]3C(C)(C)C(=O)NC(N)=O)cn1` [Example 58], the Ki in test [1] was found to be 24.9 nM. Also, in test [2] (setting [3]), the “AP-1 Max % inhibition” value stood at 45.16% and the EC50 stood at 72.6 nM.

As to `CC(C)Nc1ccc(-c2ccc3c(n2)Oc2c(F)cccc2[C@@H]3C(C)(C)C(=O)NC(N)=O)cn1` [Example 60], the Ki in test [1] is 1.13 nM. For the same compound, in test [2], the “AP-1 Max % inhibition” value is 66.44% and the 50% effective concentration (EC50) is 2.9 nM.

As for `CC(=O)Nc1ccc(-c2ccc3c(n2)Oc2c(F)cccc2[C@@H]3C(C)(C)C(=O)NC(N)=O)cn1` [Example 61], the Ki in test [1] was determined as 4.26 nM. Also, in test [2] (setting [3]), the “AP-1 Max % inhibition” value is recorded as 39.15% and the EC50 came out at 31.1 nM.

`CC(C)(C(=O)NC(N)=O)[C@@H]1c2ccc(-c3ccc(NC4CC4)nc3)nc2Oc2c(F)cccc21` [Example 62]: in test [1], the Ki came to 1.15 nM. For the same compound, in test [2] (setting [3]), the “AP-1 Max % inhibition” value was 64.75% and the concentration for a half-maximal effect (EC50) was found to be 8.24 nM.

Turning to `CC(C)(C(=O)NC(N)=O)[C@@H]1c2ccc(-c3ccc(C(=O)O)nc3)nc2Oc2c(F)cccc21` [Example 63], the Ki in test [1] worked out at 10.8 nM. Further, in test [2] (setting [3]), the “AP-1 Max % inhibition” value stood at 39.61% and the EC50 is 142 nM.

Regarding `CC(C)(C(=O)NC(N)=O)[C@@H]1c2ccc(-c3ccc(N4CCCCC4)nc3)nc2Oc2c(F)cccc21` [Example 64], in test [1], the Ki was 1.7 nM. In test [2], the “AP-1 Max % inhibition” value came to 44.43% and the EC50 was found to be 72.5 nM.

On to `CC(C)Oc1ccc(-c2ccc3c(n2)Oc2ccccc2[C@@H]3C(C)(C)C(=O)NC(N)=O)cn1` [Example 65], for which the Ki in test [1] worked out at 0.5 nM. Also, in test [2] (setting [3]), the “AP-1 Max % inhibition” value is on record as 54.73% and the EC50 was found to be 4.89 nM.

For `CC(=O)Nc1ccc(-c2ccc3c(n2)Oc2ccccc2[C@@H]3C(C)(C)C(=O)NC(N)=O)cn1` [Example 66], the Ki in test [1] stood at 2.66 nM. In addition, in test [2] (setting [3]), the “AP-1 Max % inhibition” value came to 36.83% and the EC50 was determined as 39.7 nM.
